According to patent publication US6406679B1, “Use of HL-60-related lectins in drug delivery and detection of lectin-expressing cells” (Incyte Pharmaceuticals, Inc., priority 1992, dated 2002):
“And” between values parts separate entries of the source, which are not always exact repeats. Equal entries are not always repeated.

Assays:
lymph node cells = experiment: In vivo effect of lectin on phenotypes of lymphocytes (antibody staining); set-up: species or system rat; conditions: for % positive / F^L / % CHANGE IN POSITIVES: Lymph Node Cells
Lewis rats [1] = experiment: Rat heart transplantation, lectin combined with cyclosporin; format: in vivo; conditions: Group A: Cyclosporin 0, Lectin 2.5 mg/kg/day
Source text: The heart transplant model of paragraph A was used. Five groups of 5 Lewis rats received hearts from Brown Norway rats and were given the following drugs by group, as shown in Table 8:
Cyclosporin i.p. was started the day of the graft and continued daily. Recombinant lectin was started two days prior to transplant and continued daily.

Lewis rats [2] = experiment: Rat heart transplantation (Brown Norway into Lewis); format: in vivo; conditions: for Onset of Rejection: d − 3 to d + 9, heart allograft
Procedure: The studies reported here relate to Brown Norway rat tissue transplanted into Lewis rats. This model, a highly histo-incompatible donor/recipient pair, provides a very stringent test with predictive value in human transplantation. Known general immunosuppressive agents show immunosuppressive activity in these models. Several forums of this model are used in the studies reported here.
These studies were performed in the laboratory of Dr. Randy Morris of Stanford University. Whole rat hearts were grafted into host rats which were examined daily thereafter for signs of rejection.
A control group comprised twelve recipients treated daily i.v. only with buffer control. The graft survival times were: 6d (x4), 7d (x7), and 8d, giving a mean survival of […]+/−0.6d (SD). The final day of survival is defined as the day on which the donor heart ceased to contract as assessed by lack of obvious palpitations and as confirmed by direct visualization at laparotomy.
Five recipients were treated with the recombinant lectin. All animals were pretreated with 1 mg/kg i.v. lectin on days −3, −2 and −1. The first two animals were then treated postoperatively with 1 mg/kg/d i.v. with lectin from day 1 until graft rejection. The second three animals were treated in the postoperative period from day 1 until graft rejection with 2 mg/kg/d i.v. of lectin. Graft survivals were 9 and 10d for the first group of rats, and 9, 10 and 11d for the second group. No dramatic increase in survival was seen by doubling the dose of lectin in group two in the postoperative period. Therefore, graft survival times of both groups were combined for statistical analysis. When graft survival was analyzed, lectin treatment produced a mean graft survival of 9.8+/−0.84d (SD), +/−0.38d (SEM) with a 95% confidence limit. Using the one-tailed Mann-Whitney U-test to compare the differences between the graft survival times for the saline and lectin-treated groups, a P value of 0.00096 was obtained.

Lewis rat = experiment: Experimental autoimmune encephalomyelitis (EAE) induced with GPBP/CFA; format: in vivo
Source text: Experimental autoimmune encephalomyelitis (EAE) is a T-cell-mediated disease considered to be a useful model for human paralytic and demyelinating diseases such as multiple sclerosis (Vandenbark, A. et al., J. Immunol. (1985) 135:223). In the Lewis rat, paralytic signs of EAE are induced about 14 days after injecting guinea pig myelin basic protein (GPBP) in Complete Freund's Adjuvant (CFA). It has been shown by Offner, H. et al. (J. Immunol. (1988) 141:3288) that T-cells specific for GPBP in immunized rats recognize amino acid residues 72-89 of GPBP and have the ability to transfer both clinical signs of EAE and delayed-type hypersensitivity reaction to GPBP to other animals.
In the studies reported in this example, EAE was induced by injection of GPBP/CFA as described above.
In one protocol intravenous administration of lectin was started at day 0 relative to 50 μg GPBP/CFA injection, with additional lectin treatment at days 3 and 6. The severity of the disease was determined clinically and histologically:
“Clinical” Ratings are as Follows:
3=Hind quarter paralysis.
“Histologic” Ratings are as Follows:
Slides were examined for degree of inflammation with ratings as follows:
0.5=a few infiltrating cells in the meninges;
1=meningeal infiltration, more organized and concentrated around blood vessels;
2-4=increasing intensity of meningeal infiltration and perivascular cuffing in the CNS parenchyma.
In a second protocol, lectin was first administered three days before immunization with 50 μg GPBP/CFA and was followed by daily injections until day 7 after immunization.
In an additional experiment, animals were given various doses of lectin on days 0-12, following the administration of 10 μg GPBP injected intramuscularly.

[3] = tested on: T-cell lines MOLT4 and ARR on thymic epithelial cells; experiment: Binding of cultured T-cells to thymic epithelial cells (DPM); format: cell-based, human; conditions: lectin-treated T-cells with terminal galactose residues, FIG. 4
Procedure: The effects of the lectin on the binding of cultured T-cells to thymic epithelial cells were further tested according to the protocol of Singer et al., (Proc. Natl. Acad. Sci. (1986) 83:6588-92). T-cell lines MOLT4 and ARR (a T-cell line with sialic-acid-terminating glycoproteins) were incubated with tritiated thymidine. Next, the cells were treated with neuraminidase (which cleaves terminal sialic acids from the glycoproteins on ARR cells and leaves terminal galactose), galactosidase, endolactosaminidase or no enzyme. After this step, they cells were incubated with and without lectin. All the treatment and control groups of T-cells were layered over thymic epithelial cells, incubated and washed as described in Singer et al. Lastly, the amount of bound T-cells was quantitated by […] per minute (DPM).

[4] = antibody IgG, lectin-treated rats
[5] = 250 μg lectin Days −3 to 6 daily
[6] = 250 μg lectin Days −3 to 6 daily, background subtracted
[7] = 250 μg lectin Days −3 to 6 daily, scale 0-4

Lectin: Soluble 14 kD β-galactoside-binding HL-60/placenta lectin of FIG. 1 (SEQ ID NO:2), prepared recombinantly in E. coli
% positive (lymph node cells; antibody 0X6): 10.0%
F^L (lymph node cells; antibody 0X6): 1208
% CHANGE IN POSITIVES (lymph node cells; antibody 0X6, lectin vs control): 0%
% positive (lymph node cells; antibody 0X8): 30.3%
F^L (lymph node cells; antibody 0X8 (suppressor T-cells)): 472
% CHANGE IN POSITIVES (lymph node cells; antibody 0X8, lectin vs control): +28%
% positive (lymph node cells; antibody 0X12): 9.9%
F^L (lymph node cells; antibody 0X12): 316
% CHANGE IN POSITIVES (lymph node cells; antibody 0X12, lectin vs control): 0%
% positive (lymph node cells; [4]): 16.4%
F^L (lymph node cells; [4]): 129
% positive (lymph node cells; antibody W3/13): 99.5%
F^L (lymph node cells; antibody W3/13 (total T-cells)): 442
% CHANGE IN POSITIVES (lymph node cells; antibody W3/13, lectin vs control): 0%
% positive (lymph node cells; antibody W3/25): 76.5%
F^L (lymph node cells; antibody W3/25 (helper T-cells)): 230
% CHANGE IN POSITIVES (lymph node cells; antibody W3/25, lectin vs control): −0%
increase in the number of rat lymph node suppressor T-cells (0X8 reactive) (lymph node cells; lectin-treated animals): 28%
Survivors on Day 16 (Lewis rats [1]): 0/5
Graft survival, individual animals (Lewis rats [2]; 1 mg/kg i.v. days −3 to −1, then 1 mg/kg/d i.v. until rejection): 9 days and 10 days
Graft survival, individual animals (Lewis rats [2]; 1 mg/kg i.v. days −3 to −1, then 2 mg/kg/d i.v. until rejection): 9 days and 10 days and 11 days
Onset of Rejection (Lewis rats [2]; 1 mg/kg): 9.8 ± .8 days
Onset of Rejection (Lewis rats [2]; 2 mg/kg): 9.8 ± .8 days
toxicity as might be manifested by weight loss (Lewis rats [2]; 1-2 mg/kg/d i.v.): no noticeable toxicity
mean graft survival (SD) (Lewis rats [2]; both lectin dose groups combined, five recipients): 9.8 ± 0.84 days
Duration (Lewis rat; 250 μg lectin Days 0, 3, 6): 3.0 days and 3 days
Loss of Weight (Lewis rat; 250 μg lectin Days 0, 3, 6): 20 g
Severity of Disease, Histological Rating (Lewis rat; 250 μg lectin Days 0, 3, 6, scale 0-4): 3.5
Duration (days) (Lewis rat; [5]): 0^3 days
Loss of Weight (g) (Lewis rat; [5]): None^3
GPBP DTH (delayed type hypersensitivity reaction, swelling) (Lewis rat; [6]): 9 mm/100
PPD DTH (delayed type hypersensitivity reaction, swelling) (Lewis rat; [6]): 4 mm/100
Clinical Severity of Disease (Lewis rat; [7]): 0^3/
Histologic Severity of Disease (Lewis rat; [7]): 0.50^3
Day of Onset (Lewis rat; 250 μg lectin i.v. Days 0, 3, 6, 50 μg GPBP/CFA): 17 days
daily dosage optimal for ameliorating the symptoms (Lewis rat; 10-1500 μg intraperitoneally days 0-12, 10 μg GPBP, FIGS. 10 and 11): 500 µg
development of the disease (EAE) (Lewis rat; lectin from three days before immunization, daily until day 7): prevented completely
Binding of T-cells to thymic epithelial cells [3]: appreciably bound
